Results taken from patent US20140228427A1, “PHARMACEUTICAL COMPOSITION CONTAINING WOGONIN AS AN ACTIVE INGREDIENT FOR PREVENTING OR TREATING ASTHMA” (KOREA RESEARCH INSTITUTE OF BIOSCIENCE AND BIOTECHNOLOGY, priority 2011, published 2014).

Experiments:
[1] = system: inflammatory cells (eosinophils and other inflammatory cells) in bronchoalveolar lavage fluid; test: Analysis of inflammatory cells in bronchoalveolar lavage fluid; assay type: in vivo, Balb/c mice; details: for Cell Number, other cells: OVA group 452.55 ± 93.48
Protocol: (§1) To investigate the effect of the Wogonin of the present invention on asthma, 6-week old female Balb/c mice in the weight of about 20 g were used as test animals. After spending one week for adaptation, basic physical examination was performed to select normal ones.
(§2) The test animal was sensitized with 200 μl of phosphate buffer (pH 7.4) containing 2 mg of aluminum hydroxide (A8222, Sigma, St. Louis, Mo.) and 20 μg of ovalbumin (A5503, Sigma, St. Louis, Mo.) by intraperitoneal injection at 2 weeks interval. 1% ovalbumin was inhaled in the mouse for 30 minutes by using an ultrasonic nebulizer from the 28th day to the 30th day after the first intraperitoneal injection of ovalbumin (OVA).
(§3) 24 hours after the final antigen treatment, airway hypersensitivity was measured. 48 hours later, a lethal dose of pentobarbital (Entobar, Hanlim Pharm. Co. Ltd., Seoul, Korea) was administered to the mouse. Body weight was measured and tracheostomy was performed. Bronchoalveolar lavage was performed with 1.2 ml of saline, followed by sampling. The normal control group (NC) was administered with ovalbumin but not inhaled, the asthma induced group (OVA) was administered with ovalbumin and inhaled to induce bronchial asthma, the comparative group 1 (DEXA) was orally administered with dexamethasone (3 mg/kg, PO: D4902, Sigma, St. Louis, Mo.) one hour before inhaling ovalbumin, the comparative group 2 (Monte) was orally administered with montelukast (30 mg/kg, PO) one hour before inhaling ovalbumin, and the experimental group (Wogonin) was orally administered with the Wogonin of Example 1 (30 mg/kg, PO) one hour before inhaling ovalbumin. Each group was composed of 5 white mice.
To investigate the effect of the Wogonin of the present invention on asthma, the present inventors measured the increase or decrease of inflammatory cell number which is believed to be involved in asthma.
As soon as bronchoalveolar lavage fluid was recovered from each group, it was stained with Trypan blue. Then, the number of cells, except dead cells, was counted by hemocytometer. The sample was smeared with Cytospin II, followed by Diff-Quick staining (Sysmex, Switzerland) to calculate the numbers of eosinophils and other inflammatory cells.

[2] = system: airway hypersensitivity in ovalbumin-sensitized Balb/c mice; test: Measurement of airway hypersensitivity (Penh, methacholine inhalation, one chamber plethysmography); assay type: in vivo; details: methacholine 12.5 mg/ml; OVA group 2.2917 ± 0.3070; mean±S.E.
[3] = system: reactive oxygen species; test: Measurement of reactive oxygen species generation (DCFH-DA fluorescence) in bronchoalveolar lavage fluid; assay type: in vivo, Balb/c mice; details: for Reactive oxygen species generation, DCF fluorescence: NC = 100%, OVA group 192.89 ± 27.36; for reduction of reactive oxygen species generation compared with the asthma induced group: vs asthma induced group
Protocol: as §1, §2, §3
The increase of oxidative stress results in the decrease of reaction to steroids. To investigate the effect of the Wogonin of the present invention on asthma, the present inventors measured the generation of reactive oxygen species which is apparent in asthma like in other inflammatory diseases.
A portion of bronchoalveolar lavage fluid of each group was washed with PBS, to which 10 μM of 2,7-Dichlorofluorescein diacetate (DCFH-DA, 35845, Sigma, St. Louis, Mo.), one of the fluorescent reagents, was added. The mixture stood at room temperature for 10 minutes in the darkness, and then measured fluorescence with a spectrofluorometer (Ex=480 nm Em=522 nm).

[4] = system: IgE; test: Measurement of IgE in serum and bronchoalveolar lavage fluid by enzyme immunoassay; assay type: in vivo, Balb/c mice; details: mean±S.E.; for Total IgE Conc. in bronchoalveolar lavage fluid: OVA group 19.02 ± 2.43; for Total IgE Conc. in Serum: OVA group 23139.51 ± 484.45
Protocol: as §1, §2, §3
To investigate the effect of the Wogonin of the present invention on asthma, the inventors measured IgE concentration in serum and bronchoalveolar lavage fluid which is related to the severity of asthma by enzyme immunoassay.
Serum and bronchoalveolar lavage fluid taken from each group were loaded in […] plate on which 0.1M NaHCO3 buffer (pH 8.3) containing 20 μg/ml of ovalbumin (OVA) was coated at 4° C. for overnight. Non-specific reaction was blocked by PBS containing 1% bovine serum albumin. Serum sample was diluted at the ratio of 1:400, followed by reaction at room temperature for 2 hours.
After washing the plate well, the sample was reacted with anti-mouse IgE monoclonal antibody diluted at the ratio of 1:300 for 2 hours. HRP-conjugated goat anti-rat IgG polyclonal A was diluted at the ratio of 1:4000, which was added thereto for further reaction at room temperature for 1 hour, followed by washing.
For color development, 3.3′5.5′-tetramethylbenzidine substrate was added, followed by measuring OD650.

[5] = system: IL-6; test: Analysis of cytokine mRNA (RT-PCR), IL-6; assay type: in vivo, Balb/c mice; details: for Relative Densitometric Value, RDV, IL-6: NC = 100%, OVA group 128.20 ± 6.51
Protocol: as §1, §2, §3
(§4) To investigate the effect of the Wogonin of the present invention on asthma, asthma related cytokine mRNA was measured.
(§5) RNA was isolated from the lung by using trizol (Invitrogen) in order to measure the expressions of Th2 cytokines such as IL-4, IL-6, and IL-13 in the supernatant of bronchoalveolar lavage fluid taken from each group, followed by reverse transcriptase polymerase chain reaction (quantitative RT-PCR, Promega, Wis.). When the lowest expression was indicated as 1, relative densitometric value (RDV) was produced by that to evaluate the expression inhibition effect.

[6] = system: IL-13; test: Analysis of cytokine mRNA (RT-PCR), IL-13; assay type: in vivo, Balb/c mice; details: for Relative Densitometric Value, RDV, IL-13: NC = 100%, OVA group 187.35 ± 7.49
Protocol: as §1, §2, §3, §4, §5

[7] = system: IL-4; test: Analysis of cytokine mRNA (RT-PCR), IL-4; assay type: in vivo, Balb/c mice; details: for Relative Densitometric Value, RDV, IL-4: NC = 100%, OVA group 159.91 ± 14.87
Protocol: as §1, §2, §3, §4, §5

[8] = Body weight of ovalbumin-induced asthma mice; assay type: in vivo, Balb/c mice; details: OVA asthma induced mice; Wogonin 30 mg/kg PO, dexamethasone 3 mg/kg PO, montelukast 30 mg/kg PO; asthma induced group 19.72±0.53, normal control 21.60±0.25
Protocol: as §1, §2, §3

[9] = system: airway hypersensitivity in ovalbumin-sensitized Balb/c mice; test: Measurement of airway hypersensitivity (Penh, methacholine inhalation, one chamber plethysmography); assay type: in vivo; details: for Penh value: mean±S.E.
Protocol: as §1, §2, §3
The effect of the Wogonin of the present invention on asthma related airway hypersensitivity was evaluated by measuring enhanced pause (Penh) which presents the grade of airway obstruction calculated by measuring airway resistance using one chamber plethysmorgraphy (All Medicus, Seoul). For the measurement of Penh, base value was measured under normal breathing condition and then PBS was inhaled by using an ultrasonic nebulizer for 3 minutes, followed by measuring for 3 minutes. Then, methacholine (A2251, Sigma, St. Louis, Mo.), the […], which is generally used to diagnose bronchial asthma, was inhaled to the animal with raising the concentration gradually (12, 25, and 50 mg/ml), followed by measuring Penh. The ratio of Penh increased over the concentrations of methacholine inhaled was presented as % and baseline Penh (saline challenge) was presented as 100%.

[10] = system: infiltration of inflammatory cells around bronchiolus and blood vessels; test: Histopathological test of the lung (H&E, inflammatory index); assay type: in vivo, Balb/c mice; details: index scale 0-4; for Inflammatory Index around bronchiolus: OVA group 3.60 ± 0.22; for Inflammatory Index around blood vessels: OVA group 3.80 ± 0.18
Protocol: as §1, §2, §3
The infiltration of inflammatory cells including eosinophils, neutrophils, and macrophages is observed in the bronchus sensitized with an antigen. To investigate the effect of the Wogonin of the present invention on asthma, the inventors performed histopathological test with the lung without bronchoalveolar lavage.
The lung extracted without bronchoalveolar lavage from each group was fixed with formalin and embedded in paraffin. Then, 4 μm thick permanent tissue sections were prepared, followed by H&E staining. Upon completion of H&E staining, inflammatory index was measured from 5 random regions of each section, and then mean value was calculated.

[11] = methacholine 0 mg/ml, OVA group 0.6299 ± 0.0617
[12] = methacholine 25 mg/ml, OVA group 6.8642 ± 0.8313
[13] = methacholine 50 mg/ml, OVA group 9.1854 ± 1.6230

Structure (SMILES) | Cell Number, eosinophils ([1]; OVA group 71.75 ± 4.63) | Cell Number, other cells [1] | Cell Number, total cells ([1]; OVA group 524.30 ± 43.22) | Penh value [2] | Reactive oxygen species generation, DCF fluorescence [3] | reduction of reactive oxygen species generation compared with the asthma induced group [3] | Total IgE Conc. in bronchoalveolar lavage fluid [4] | Total IgE Conc. in Serum [4] | Relative Densitometric Value, RDV, IL-6 [5] | Relative Densitometric Value, RDV, IL-13 [6] | Relative Densitometric Value, RDV, IL-4 [7] | average body weight [8] | Penh value [9, 11] | Penh value [9, 12] | Penh value [9, 13] | Inflammatory Index around bronchiolus [10] | Inflammatory Index around blood vessels [10] | other results
COc1c(O)cc(O)c2c(=O)cc(-c3ccccc3)oc12 [Wogonin] | 32.24±8.84 ×10^3 cell/mouse | 140.28 ± 26.24 ×10^3 cell/mouse | 172.52±29.29 ×10^3 cell/mouse | 1.7059 ± 0.3028 | 60.91 ± 4.14% | 68.42% | 12.10 ± 1.87 ng/mL | 19418.52 ± 1332.101 ng/mL | 106.87 ± 10.47% | 143.68 ± 14.08% | 118.11 ± 29.80% | 21.92 ± 0.43 g | 0.4261 ± 0.0069 | 2.0166 ± 0.2248 | 2.6055 ± 0.2280 | 1.00±0.28 | 1.40±0.22 | suppression of IL-6 expression compared with the asthma induced group ([5]; lung, vs asthma induced group): 16.64%; suppression of IL-13 expression compared with the asthma induced group ([6]; lung, vs asthma induced group): 23.30%; suppression of IL-4 expression compared with the asthma induced group ([7]; lung, vs asthma induced group): 26.14%; Penh value over the increase of methacholine concentration ([9]; range over methacholine concentrations): 1.7059-2.6055
CC(C)(O)c1ccccc1CC[C@@H](SCC1(CC(=O)O)CC1)c1cccc(/C=C/c2ccc3ccc(Cl)cc3n2)c1 [Monte, montelukast] | 27.88 ± 2.80 ×10^3 cell/mouse | 130.12 ± 9.22 ×10^3 cell/mouse | 167.68 ± 8.80 ×10^3 cell/mouse | 1.5249 ± 0.2432 | 104.48 ± 9.80% | 45.84% | 10.15 ± 1.58 ng/mL | 17176.54 ± 2542.98 ng/mL | 112.39 ± 7.16% | 157.67 ± 16.60% | 138.86 ± 19.52% | 21.08 ± 0.36 g | 0.4525 ± 0.0313 | 2.1006 ± 0.4758 | 2.3576 ± 0.1741 | 2.25±0.22 | 2.50 ± 0.25 | Cell Number, eosinophils ([1]; OVA group 71.75 ± 4.63, listed as montelukast): 27.88±2.80 ×10^3 cell/mouse; Cell Number, total cells ([1]; OVA group 524.30 ± 43.22, listed as montelukast): 167.68±8.80 ×10^3 cell/mouse; Inflammatory Index around blood vessels ([10]; listed as comparative control group 2): 0.50±0.25
C[C@@H]1C[C@H]2[C@@H]3CCC4=CC(=O)C=C[C@]4(C)[C@@]3(F)[C@@H](O)C[C@]2(C)[C@@]1(O)C(=O)CO [DEXA, dexamethasone] | 8.24 ± 1.31 ×10^3 cell/mouse | 81.00 ± 10.40 ×10^3 cell/mouse | 89.24 ± 6.98 ×10^3 cell/mouse | 1.6750 ± 0.0820 | 116.55 ± 9.28% | 39.58% | 10.15 ± 1.38 ng/mL | 15991.36 ± 1194.92 ng/mL | 121.37 ± 6.78% | 176.55 ± 16.13% | 139.60 ± 13.34% | 21.04 ± 0.35 g | 0.6486 ± 0.1526 | 1.9963 ± 0.1577 | 2.7864 ± 0.4293 | 1.75±0.19 | 1.50 ± 0.22 | Cell Number, eosinophils ([1]; OVA group 71.75 ± 4.63, listed as dexamethasone): 8.24±1.31 ×10^3 cell/mouse; Cell Number, total cells ([1]; OVA group 524.30 ± 43.22, listed as dexamethasone): 89.24±6.98 ×10^3 cell/mouse; Inflammatory Index around blood vessels ([10]; listed as comparative control group 1): 1.50±0.22
